Active and inactive are the calls of the source. No cut-off for these calls is given here.
How the values were obtained:
PC-9 [1] = test: Induction of cell cycle arrest in human PC-9 cells expressing EGFR Del19/T790M/C797S mutant assessed as accumulation of cells at G0/G1 phase at low dose incubated for 24 hrs by PI staining based flow cytometric analysis; format: functional
PC-9 [2] = test: Induction of cell cycle arrest in human PC-9 cells expressing EGFR L858R/T790M/C797S mutant assessed as accumulation of cells at G2/M phase at 1 uM incubated for 24 hrs by PI staining based flow cytometric analysis; format: functional
PC-9 [3] = test: Induction of cell cycle arrest in human PC-9 cells expressing EGFR L858R/T790M/C797S mutant assessed as S phase cells at 0.1 to 1 uM incubated for 24 hrs by PI staining based flow cytometric analysis (reference value: 34.5 +/- 3.3 %); format: functional; details: dose 0.1-1 µM
PC-9 [4] = test: Induction of cell cycle arrest in human PC-9 cells expressing EGFR Del19/T790M/C797S mutant assessed as S phase cells at 0.1 to 1 uM incubated for 24 hrs by PI staining based flow cytometric analysis (reference value: 32.4 +/- 1.1 %); format: functional; details: dose 0.1-1 µM
PC-9 [5] = test: Induction of apoptosis in human PC-9 cells expressing EGFR L858R/T790M/C797S mutant assessed as viable cells at 0.1 uM incubated for 48 hrs by Annexin V-FITC/PI staining based flow cytometric analysis (reference value: 98.9 %); format: functional; details: read-out: Activity
PC-9 [6] = test: Induction of apoptosis in human PC-9 cells expressing EGFR L858R/T790M/C797S mutant assessed as late apoptotic cells at 0.1 uM incubated for 48 hrs by Annexin V-FITC/PI staining based flow cytometric analysis (reference value: 0.360 %); format: functional
PC-9 [7] = test: Induction of apoptosis in human PC-9 cells expressing EGFR L858R/T790M/C797S mutant assessed as viable cells at 0.5 uM incubated for 48 hrs by Annexin V-FITC/PI staining based flow cytometric analysis (reference value: 98.9 %); format: functional; details: read-out: Activity
PC-9 [8] = test: Induction of apoptosis in human PC-9 cells expressing EGFR L858R/T790M/C797S mutant assessed as early apoptotic cells at 0.5 uM incubated for 48 hrs by Annexin V-FITC/PI staining based flow cytometric analysis (reference value: 0.210 %); format: functional
PC-9 [9] = test: Induction of apoptosis in human PC-9 cells expressing EGFR L858R/T790M/C797S mutant assessed as late apoptotic cells at 0.5 uM incubated for 48 hrs by Annexin V-FITC/PI staining based flow cytometric analysis (reference value: 0.360 %); format: functional
PC-9 [10] = test: Induction of apoptosis in human PC-9 cells expressing EGFR L858R/T790M/C797S mutant assessed as early apoptotic cells at 1 uM incubated for 48 hrs by Annexin V-FITC/PI staining based flow cytometric analysis (reference value: 0.210 %); format: functional
PC-9 [11] = test: Induction of apoptosis in human PC-9 cells expressing EGFR L858R/T790M/C797S mutant assessed as late apoptotic cells at 1 uM incubated for 48 hrs by Annexin V-FITC/PI staining based flow cytometric analysis (reference value: 0.360 %); format: functional
PC-9 [12] = test: Induction of apoptosis in human PC-9 cells expressing EGFR Del19/T790M/C797S mutant assessed as late apoptotic cells at 0.1 uM incubated for 48 hrs by Annexin V-FITC/PI staining based flow cytometric analysis (reference value: 0.040 %); format: functional
PC-9 [13] = test: Induction of apoptosis in human PC-9 cells expressing EGFR Del19/T790M/C797S mutant assessed as viable cells at 0.5 uM incubated for 48 hrs by Annexin V-FITC/PI staining based flow cytometric analysis (reference value: 99.8 %); format: functional; details: read-out: Activity
PC-9 [14] = test: Induction of apoptosis in human PC-9 cells expressing EGFR Del19/T790M/C797S mutant assessed as early apoptotic cells at 0.5 uM incubated for 48 hrs by Annexin V-FITC/PI staining based flow cytometric analysis (reference value: 0.050 %); format: functional
PC-9 [15] = test: Induction of apoptosis in human PC-9 cells expressing EGFR Del19/T790M/C797S mutant assessed as late apoptotic cells at 0.5 uM incubated for 48 hrs by Annexin V-FITC/PI staining based flow cytometric analysis (reference value: 0.040 %); format: functional
PC-9 [16] = test: Induction of apoptosis in human PC-9 cells expressing EGFR Del19/T790M/C797S mutant assessed as necrotic cells at 0.5 uM incubated for 48 hrs by Annexin V-FITC/PI staining based flow cytometric analysis (reference value: 0.090 %); format: functional
PC-9 [17] = test: Induction of apoptosis in human PC-9 cells expressing EGFR Del19/T790M/C797S mutant assessed as early apoptotic cells at 1 uM incubated for 48 hrs by Annexin V-FITC/PI staining based flow cytometric analysis (reference value: 0.050 %); format: functional
PC-9 [18] = test: Antitumor activity against human PC-9 cells expressing EGFR L858R/T790M/C797S mutant xenografted in BALB/c nude mouse assessed as reduction in tumor volume at 10 to 40 mg/kg, po administered for 18 days; format: functional, organism-based; details: dose 10-40 mg/kg, time 18.0 day
PC-9 [19] = test: Antitumor activity against human PC-9 cells expressing EGFR L858R/T790M/C797S mutant xenografted in BALB/c nude mouse assessed as tumor growth inhibition at 10 mg/kg, po administered for 18 days relative to control; format: functional; details: PC-9, 432 h, time 18 day, read-out: TGI
[20] = Toxicity in BALB/c nude mouse xenografted with human PC-9 cells expressing EGFR L858R/T790M/C797S mutant assessed as body weight loss at 10 to 40 mg/kg, po administered for 18 days; format: organism-based; details: in vivo, 432 h, dose 10-40 mg/kg, time 18 day
PC-9 [21] = test: Antitumor activity against human PC-9 cells expressing EGFR L858R/T790M/C797S mutant xenografted in BALB/c nude mouse assessed as average tumor weight at 40 mg/kg, po administered for 18 days (reference value: 0.83 g); format: functional; details: time 18 day
[22] = Metabolic stability in rabbit liver microsomes assessed as half-life at 10 uM preincubated for 5 mins followed by NADPH addition and measured upto 60 mins by HPLC analysis; format: ADME, Oryctolagus cuniculus, Microsome; details: time < 65 min
[23] = Metabolic stability in human liver microsomes assessed as half-life at 10 uM preincubated for 5 mins followed by NADPH addition and measured upto 60 mins by HPLC analysis; format: ADME, Microsome; details: time < 65 min
[24] = Metabolic stability in Sprague-Dawley rat liver microsomes assessed as intrinsic clearance at 10 uM preincubated for 5 mins followed by NADPH addition and measured upto 60 mins by HPLC analysis; format: ADME, Microsome; details: time < 65 min, read-out: CLH
[25] = Metabolic stability in dog liver microsomes assessed as intrinsic clearance at 10 uM preincubated for 5 mins followed by NADPH addition and measured upto 60 mins by HPLC analysis; format: ADME, Canis lupus familiaris, Microsome; details: time < 65 min, read-out: CLH
PC-9 [26] = test: cells; details: Homo sapiens, PC-9, 72 h
Description: Cytotoxicity against human PC-9 cells expressing EGFR L858R/T790M/C797S mutant assessed as inhibition of cell proliferation incubated for 72 hrs by CCK8 assay

PC-9 [27] = test: cells; details: Homo sapiens, PC-9, 72 h; remark: listed apart in the source
Description: Cytotoxicity against human PC-9 cells expressing EGFR Del19/T790M/C797S mutant assessed as inhibition of cell proliferation incubated for 72 hrs by CCK8 assay

NCI-H1975 = test: cells; details: Homo sapiens, NCI-H1975, 72 h
Description: Cytotoxicity against human NCI-H1975 cells expressing EGFR L858R/T790M mutant assessed as inhibition of cell proliferation incubated for 72 hrs by CCK8 assay

PC-9 [28] = test: cells; details: Homo sapiens, PC-9, 72 h; remark: listed apart in the source
Description: Cytotoxicity against human PC-9 cells expressing EGFR Del19 mutant assessed as inhibition of cell proliferation incubated for 72 hrs by CCK8 assay

Compound: C=CC(=O)Nc1cc(Nc2ncc(F)c(-c3ccc4cc(C(=O)NC)n(C(C)C)c4c3)n2)ccc1N1CCN(C)CC1
- Activity (PC-9 [1]): Active
- Activity (PC-9 [2]): Active
- Activity (PC-9 [3]): 15.9%
- Activity (PC-9 [4]): 15.6%
- viability at 0.1 µM (PC-9 [5]): 84.9%
- Activity (PC-9 [6]): 7.25%
- viability at 0.5 µM (PC-9 [7]): 61.2%
- Activity (PC-9 [8]): 30.3%
- Activity (PC-9 [9]): 6.77%
- Activity (PC-9 [10]): 36.3%
- Activity (PC-9 [11]): 4.02%
- Activity (PC-9 [12]): 7.34%
- viability at 0.5 µM (PC-9 [13]): 82.8%
- Activity (PC-9 [14]): 11.8%
- Activity (PC-9 [15]): 4.19%
- Activity (PC-9 [16]): 1.2%
- Activity (PC-9 [17]): 11.6%
- Activity (PC-9 [18]): Active
- inhibition in vivo at 10 mg/kg (PC-9 [19]): 48.7%
- Activity [20]: Non-Toxic
- Activity (PC-9 [21]): 0.31 g
- half-life at 10 µM [22]: 2.36 h
- half-life at 10 µM [23]: 3.85 h
- microsomal CLint at 10 µM [24]: 52 µL/min/mg
- microsomal CLint at 10 µM [25]: 18 µL/min/mg
- IC50 (PC-9 [26]): 52 nM
- IC50 (PC-9 [27]): 201 nM
- IC50 (NCI-H1975): 106 nM
- IC50 (PC-9 [28]): 144 nM

— ChEMBL document CHEMBL5614390, “Novel EGFR inhibitors against resistant L858R/T790M/C797S mutant for intervention of non-small cell lung cancer” (Eur J Med Chem, 2024)
